These results are taken from ChEMBL document CHEMBL1201862, “PubChem BioAssay data set” (2004).

Calls of active or inactive are those of the source.

Experiment [1] is described as follows: Trypanosoma cruzi growth suppression in host cells – NIH3T3 host cells, beta-gal luminescence, confirmation (AID 2044).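 Note: intracellular parasites grown in NIH/3T3 mouse fibroblasts as host cells; luminescent beta-galactosidase reporter signal from transgenic T. cruzi replicating inside host cells; inhibitors lower the luminescence signal.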 In kind it is functional, cell-based.
For experiment [2], the target named is T1, Ubiquitin-conjugating enzyme E2 N (Homo sapiens, UniProt P61088).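 Note: Dose-response confirmation in a TR-FRET assay detecting UBC13-driven polyubiquitin chain formation, inhibition measured.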
T1 sequence (P61088 whole entry): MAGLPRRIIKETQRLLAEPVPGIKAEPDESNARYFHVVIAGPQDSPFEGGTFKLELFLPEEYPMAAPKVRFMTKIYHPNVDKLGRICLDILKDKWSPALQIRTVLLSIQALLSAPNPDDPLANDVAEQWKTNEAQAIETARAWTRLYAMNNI
The format is functional.

The next experiment has as its system INS1. As to the kind of experiment: INS-1E survival protection against cytokine death – cell-based, luminescence, retest, dose response (AID 449756).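 Note: cell death triggered by IL-1 beta plus TNF-alpha plus IFN-gamma mixture; protective hits raise ATP signal compared with cytokine alone wells.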 The conditions noted are these: Rattus norvegicus. In kind it is functional.
The target of the next experiment is T2, Cysteine protease ATG4B (Homo sapiens, UniProt Q9Y4P1).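 Note: Fluorescence-based dose-response confirmation assay measuring inhibition of ATG4B activity.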
T2 sequence (Q9Y4P1 whole entry): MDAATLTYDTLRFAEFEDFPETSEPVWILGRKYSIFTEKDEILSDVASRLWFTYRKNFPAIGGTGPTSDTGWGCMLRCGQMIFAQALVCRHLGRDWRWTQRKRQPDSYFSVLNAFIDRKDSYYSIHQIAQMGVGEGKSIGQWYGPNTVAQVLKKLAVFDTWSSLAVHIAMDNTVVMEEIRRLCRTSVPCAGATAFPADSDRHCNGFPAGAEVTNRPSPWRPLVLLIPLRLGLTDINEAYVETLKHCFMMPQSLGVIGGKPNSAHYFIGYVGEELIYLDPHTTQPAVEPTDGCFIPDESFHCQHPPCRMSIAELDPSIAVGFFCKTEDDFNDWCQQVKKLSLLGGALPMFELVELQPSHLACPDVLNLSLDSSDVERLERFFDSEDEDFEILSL
The format is functional.

A further experiment concerns the target T3, Caspase-3 (Homo sapiens, UniProt P42574).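 Note: Dose-response selectivity test against caspase-3 for candidate inhibitors of sentrin-specific proteases (SENPs).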
T3 sequence (P42574 whole entry): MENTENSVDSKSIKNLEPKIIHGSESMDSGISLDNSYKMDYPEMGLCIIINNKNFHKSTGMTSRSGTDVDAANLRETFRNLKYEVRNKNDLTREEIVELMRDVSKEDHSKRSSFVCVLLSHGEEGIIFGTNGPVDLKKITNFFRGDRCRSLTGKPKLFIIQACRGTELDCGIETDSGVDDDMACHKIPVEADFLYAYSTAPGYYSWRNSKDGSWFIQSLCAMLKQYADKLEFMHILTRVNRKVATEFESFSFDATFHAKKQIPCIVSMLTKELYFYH
The format is functional.

Experiment [3] concerns the target Serine/threonine-protein phosphatase PP1-alpha catalytic subunit (Homo sapiens, UniProt P62136). The experiment can be described thus: inhibition of protein phosphatase 1 activity – biochemical, fluorescence, dose response (AID 2394).
Experiment [4] deals with Mothers against decapentaplegic homolog 3 (Homo sapiens, UniProt P84022). As to the kind of experiment: inhibitors of SMAD-driven TGF-beta signaling – dose response (AID 715). In kind it is functional.
Sequence of Mothers against decapentaplegic homolog 3 (P84022 whole entry): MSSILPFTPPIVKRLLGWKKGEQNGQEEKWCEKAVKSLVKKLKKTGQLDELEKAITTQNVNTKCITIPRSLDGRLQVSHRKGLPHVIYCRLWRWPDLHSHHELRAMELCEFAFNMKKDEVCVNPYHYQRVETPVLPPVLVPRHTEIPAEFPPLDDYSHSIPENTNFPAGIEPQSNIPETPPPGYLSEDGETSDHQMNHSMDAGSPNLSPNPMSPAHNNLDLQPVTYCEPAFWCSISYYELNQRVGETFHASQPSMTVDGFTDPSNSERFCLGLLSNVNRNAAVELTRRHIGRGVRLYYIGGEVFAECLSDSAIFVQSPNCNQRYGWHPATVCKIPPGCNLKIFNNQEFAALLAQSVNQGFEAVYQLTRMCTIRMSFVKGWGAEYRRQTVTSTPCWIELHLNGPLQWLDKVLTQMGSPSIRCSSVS
Experiment [5] deals with Voltage-gated N-type calcium channel alpha-1B subunit/Amyloid beta A4 precursor protein-binding family A member 1 (Homo sapiens, UniProt Q00975+Q02410). In kind it is protein assay.
Sequence of Voltage-gated N-type calcium channel alpha-1B subunit/Amyloid beta A4 precursor protein-binding family A member 1 (Q00975 whole entry): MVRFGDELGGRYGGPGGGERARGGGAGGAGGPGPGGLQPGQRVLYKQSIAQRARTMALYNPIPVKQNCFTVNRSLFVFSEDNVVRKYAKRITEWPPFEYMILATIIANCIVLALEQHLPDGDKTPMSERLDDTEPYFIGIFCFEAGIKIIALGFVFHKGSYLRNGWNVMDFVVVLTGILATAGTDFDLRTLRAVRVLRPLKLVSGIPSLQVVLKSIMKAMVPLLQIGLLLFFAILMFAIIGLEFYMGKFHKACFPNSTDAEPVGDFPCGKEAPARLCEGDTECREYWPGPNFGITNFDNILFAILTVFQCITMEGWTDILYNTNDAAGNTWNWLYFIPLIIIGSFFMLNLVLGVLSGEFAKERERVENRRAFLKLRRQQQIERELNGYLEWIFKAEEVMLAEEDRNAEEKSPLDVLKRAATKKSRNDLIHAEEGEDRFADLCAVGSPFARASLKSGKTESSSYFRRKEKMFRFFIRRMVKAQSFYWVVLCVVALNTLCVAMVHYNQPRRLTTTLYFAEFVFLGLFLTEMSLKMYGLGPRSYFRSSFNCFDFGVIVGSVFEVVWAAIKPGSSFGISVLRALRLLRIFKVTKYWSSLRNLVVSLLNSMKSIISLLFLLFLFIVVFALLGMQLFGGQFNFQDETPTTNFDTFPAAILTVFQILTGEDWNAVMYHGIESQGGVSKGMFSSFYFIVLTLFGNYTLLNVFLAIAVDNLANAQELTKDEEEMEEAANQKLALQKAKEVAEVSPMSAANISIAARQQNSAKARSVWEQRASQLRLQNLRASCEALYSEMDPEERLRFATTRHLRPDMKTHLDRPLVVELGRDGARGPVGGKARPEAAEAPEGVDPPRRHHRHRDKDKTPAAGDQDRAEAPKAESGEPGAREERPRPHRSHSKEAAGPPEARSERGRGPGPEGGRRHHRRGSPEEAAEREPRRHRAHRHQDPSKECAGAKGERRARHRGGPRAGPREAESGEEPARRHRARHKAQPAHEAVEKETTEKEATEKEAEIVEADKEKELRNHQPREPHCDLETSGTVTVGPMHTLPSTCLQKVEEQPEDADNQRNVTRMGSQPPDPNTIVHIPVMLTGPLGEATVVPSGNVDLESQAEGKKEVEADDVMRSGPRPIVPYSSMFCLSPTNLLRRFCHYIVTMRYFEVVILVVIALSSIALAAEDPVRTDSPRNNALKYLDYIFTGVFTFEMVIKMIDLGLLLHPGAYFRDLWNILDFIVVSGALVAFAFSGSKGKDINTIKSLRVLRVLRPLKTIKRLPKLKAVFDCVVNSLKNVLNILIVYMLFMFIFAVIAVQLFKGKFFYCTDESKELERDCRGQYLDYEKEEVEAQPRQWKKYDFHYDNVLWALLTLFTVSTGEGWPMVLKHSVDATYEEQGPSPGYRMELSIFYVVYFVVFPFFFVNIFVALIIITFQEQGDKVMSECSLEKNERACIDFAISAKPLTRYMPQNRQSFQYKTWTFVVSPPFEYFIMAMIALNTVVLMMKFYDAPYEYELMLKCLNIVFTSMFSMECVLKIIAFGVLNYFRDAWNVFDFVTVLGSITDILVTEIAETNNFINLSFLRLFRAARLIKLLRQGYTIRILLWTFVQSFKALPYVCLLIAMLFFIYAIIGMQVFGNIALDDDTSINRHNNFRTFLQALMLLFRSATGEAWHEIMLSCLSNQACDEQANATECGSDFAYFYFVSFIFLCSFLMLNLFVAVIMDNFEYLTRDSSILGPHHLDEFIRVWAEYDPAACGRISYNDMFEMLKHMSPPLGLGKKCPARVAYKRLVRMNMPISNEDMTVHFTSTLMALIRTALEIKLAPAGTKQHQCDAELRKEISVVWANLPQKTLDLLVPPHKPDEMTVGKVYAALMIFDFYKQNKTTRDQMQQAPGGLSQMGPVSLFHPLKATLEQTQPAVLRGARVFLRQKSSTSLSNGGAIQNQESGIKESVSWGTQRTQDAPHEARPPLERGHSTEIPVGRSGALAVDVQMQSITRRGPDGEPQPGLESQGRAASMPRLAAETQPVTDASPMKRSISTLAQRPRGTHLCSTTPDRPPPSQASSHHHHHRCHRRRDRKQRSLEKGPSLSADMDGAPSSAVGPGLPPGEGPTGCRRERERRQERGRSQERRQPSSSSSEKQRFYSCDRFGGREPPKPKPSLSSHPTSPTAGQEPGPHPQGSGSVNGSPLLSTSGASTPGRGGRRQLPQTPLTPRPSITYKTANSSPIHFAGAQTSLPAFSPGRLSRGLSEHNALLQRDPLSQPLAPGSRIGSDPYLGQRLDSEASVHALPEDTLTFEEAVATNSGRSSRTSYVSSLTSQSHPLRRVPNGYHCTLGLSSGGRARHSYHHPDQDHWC
Sequence of Voltage-gated N-type calcium channel alpha-1B subunit/Amyloid beta A4 precursor protein-binding family A member 1 (Q02410 whole entry): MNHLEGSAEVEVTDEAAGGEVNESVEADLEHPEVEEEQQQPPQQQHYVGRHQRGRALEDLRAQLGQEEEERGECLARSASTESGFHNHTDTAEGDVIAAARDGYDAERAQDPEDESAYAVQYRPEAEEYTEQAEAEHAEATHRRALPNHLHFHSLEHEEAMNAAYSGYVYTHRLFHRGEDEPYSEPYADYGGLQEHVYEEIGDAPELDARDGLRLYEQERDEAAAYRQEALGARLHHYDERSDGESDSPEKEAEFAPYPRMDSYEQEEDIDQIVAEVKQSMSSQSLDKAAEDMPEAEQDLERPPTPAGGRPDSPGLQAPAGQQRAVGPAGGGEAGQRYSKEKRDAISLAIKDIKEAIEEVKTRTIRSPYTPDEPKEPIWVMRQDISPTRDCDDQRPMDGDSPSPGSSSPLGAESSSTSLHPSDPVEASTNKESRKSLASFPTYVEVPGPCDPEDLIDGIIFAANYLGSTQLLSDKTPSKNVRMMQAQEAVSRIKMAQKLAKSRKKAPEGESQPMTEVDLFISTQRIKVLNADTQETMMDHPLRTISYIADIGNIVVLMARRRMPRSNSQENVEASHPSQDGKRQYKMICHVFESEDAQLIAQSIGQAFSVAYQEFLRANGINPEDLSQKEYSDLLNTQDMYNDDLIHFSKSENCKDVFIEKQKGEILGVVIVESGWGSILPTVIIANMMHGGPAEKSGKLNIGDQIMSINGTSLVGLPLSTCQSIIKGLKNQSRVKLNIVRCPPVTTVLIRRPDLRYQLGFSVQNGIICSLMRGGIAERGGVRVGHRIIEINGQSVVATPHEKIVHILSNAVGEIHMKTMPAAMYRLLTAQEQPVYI
The target in a further experiment is T4, Insulin-degrading enzyme (Homo sapiens, UniProt P14735).
T4 sequence (P14735 whole entry): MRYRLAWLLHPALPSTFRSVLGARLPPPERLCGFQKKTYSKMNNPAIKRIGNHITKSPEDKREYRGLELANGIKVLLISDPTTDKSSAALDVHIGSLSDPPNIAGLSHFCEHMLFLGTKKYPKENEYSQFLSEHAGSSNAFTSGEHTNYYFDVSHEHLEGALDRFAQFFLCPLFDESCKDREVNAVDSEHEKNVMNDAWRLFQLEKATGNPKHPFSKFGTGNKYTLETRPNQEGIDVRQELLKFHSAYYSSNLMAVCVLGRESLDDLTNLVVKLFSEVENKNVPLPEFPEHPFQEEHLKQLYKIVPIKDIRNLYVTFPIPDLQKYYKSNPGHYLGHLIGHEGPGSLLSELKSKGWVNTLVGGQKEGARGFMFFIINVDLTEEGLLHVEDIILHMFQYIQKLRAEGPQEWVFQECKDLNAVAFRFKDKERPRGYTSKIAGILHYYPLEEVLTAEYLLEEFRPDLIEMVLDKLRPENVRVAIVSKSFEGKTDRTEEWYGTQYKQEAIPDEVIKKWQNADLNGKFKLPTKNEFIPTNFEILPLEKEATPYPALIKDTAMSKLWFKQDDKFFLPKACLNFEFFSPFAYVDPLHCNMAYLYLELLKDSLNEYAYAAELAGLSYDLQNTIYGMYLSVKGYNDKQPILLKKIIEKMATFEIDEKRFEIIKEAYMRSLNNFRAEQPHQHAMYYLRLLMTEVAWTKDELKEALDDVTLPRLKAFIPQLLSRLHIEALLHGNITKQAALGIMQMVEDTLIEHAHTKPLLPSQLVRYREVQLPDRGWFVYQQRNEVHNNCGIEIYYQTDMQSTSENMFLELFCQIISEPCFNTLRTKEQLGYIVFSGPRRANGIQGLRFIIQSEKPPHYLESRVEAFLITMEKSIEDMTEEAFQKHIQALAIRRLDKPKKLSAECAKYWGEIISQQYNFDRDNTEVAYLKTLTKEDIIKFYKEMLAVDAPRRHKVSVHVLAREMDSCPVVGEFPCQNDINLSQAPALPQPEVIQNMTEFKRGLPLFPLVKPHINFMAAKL
As to the kind of experiment: cellular IDE activation of Abeta substrate cleavage – fluorescence polarization, HEK cells, dose response (AID 588439). The format is functional, cell-based.

For a further experiment, the system named is HEK293. The experiment can be described thus: membrane integrity loss in HEK cells – cell-based, fluorescence, cytotoxicity control for IDE activator project, dose response (AID 588440).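 Note: cytotoxicity by LDH release measuring loss of membrane integrity.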 The format is functional. The conditions noted are these: Homo sapiens.
The target of experiment [6] is T5, Mannose-6-phosphate isomerase (Homo sapiens, UniProt P34949).
T5 sequence (P34949 whole entry): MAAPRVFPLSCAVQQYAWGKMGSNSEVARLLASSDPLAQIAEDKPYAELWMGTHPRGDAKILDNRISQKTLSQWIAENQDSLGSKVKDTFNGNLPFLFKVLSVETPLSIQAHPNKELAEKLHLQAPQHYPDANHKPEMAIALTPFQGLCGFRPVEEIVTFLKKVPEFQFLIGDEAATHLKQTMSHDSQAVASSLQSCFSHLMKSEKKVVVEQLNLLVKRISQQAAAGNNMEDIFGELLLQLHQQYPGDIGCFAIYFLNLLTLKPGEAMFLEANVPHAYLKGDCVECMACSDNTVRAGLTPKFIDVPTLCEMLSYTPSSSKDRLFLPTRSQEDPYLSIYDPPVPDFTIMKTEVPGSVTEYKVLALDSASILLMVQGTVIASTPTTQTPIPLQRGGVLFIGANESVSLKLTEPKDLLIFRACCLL
The experiment can be described thus: MPI inhibition at elevated mannose 6-phosphate – biochemical, fluorescence intensity, high mannose 6-phosphate, primary screen (AID 1220).

The target of another experiment is Beta-lactamase (Pseudomonas aeruginosa, UniProt Q79MP6).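 Note: biochemical dose-response test of metallo-beta-lactamase enzyme inhibition, read out by epi-absorbance; purified recombinant IMP-1 metallo-beta-lactamase with nitrocefin as substrate.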
Sequence of Beta-lactamase (Q79MP6 whole entry): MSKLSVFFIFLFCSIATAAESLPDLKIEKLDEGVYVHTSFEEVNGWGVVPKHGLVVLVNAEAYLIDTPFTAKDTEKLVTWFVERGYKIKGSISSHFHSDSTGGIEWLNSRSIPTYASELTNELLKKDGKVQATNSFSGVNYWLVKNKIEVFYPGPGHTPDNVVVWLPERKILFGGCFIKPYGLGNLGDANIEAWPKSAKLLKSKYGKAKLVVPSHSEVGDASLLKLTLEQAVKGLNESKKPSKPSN
Another experiment concerns the target Large T antigen (Simian virus 40, UniProt P03070). In kind it is functional, Betapolyomavirus macacae.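 Note: Confirmatory-stage PubChem screen for compounds that inhibit SV40 T antigen.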

Sequence of Large T antigen (P03070 whole entry): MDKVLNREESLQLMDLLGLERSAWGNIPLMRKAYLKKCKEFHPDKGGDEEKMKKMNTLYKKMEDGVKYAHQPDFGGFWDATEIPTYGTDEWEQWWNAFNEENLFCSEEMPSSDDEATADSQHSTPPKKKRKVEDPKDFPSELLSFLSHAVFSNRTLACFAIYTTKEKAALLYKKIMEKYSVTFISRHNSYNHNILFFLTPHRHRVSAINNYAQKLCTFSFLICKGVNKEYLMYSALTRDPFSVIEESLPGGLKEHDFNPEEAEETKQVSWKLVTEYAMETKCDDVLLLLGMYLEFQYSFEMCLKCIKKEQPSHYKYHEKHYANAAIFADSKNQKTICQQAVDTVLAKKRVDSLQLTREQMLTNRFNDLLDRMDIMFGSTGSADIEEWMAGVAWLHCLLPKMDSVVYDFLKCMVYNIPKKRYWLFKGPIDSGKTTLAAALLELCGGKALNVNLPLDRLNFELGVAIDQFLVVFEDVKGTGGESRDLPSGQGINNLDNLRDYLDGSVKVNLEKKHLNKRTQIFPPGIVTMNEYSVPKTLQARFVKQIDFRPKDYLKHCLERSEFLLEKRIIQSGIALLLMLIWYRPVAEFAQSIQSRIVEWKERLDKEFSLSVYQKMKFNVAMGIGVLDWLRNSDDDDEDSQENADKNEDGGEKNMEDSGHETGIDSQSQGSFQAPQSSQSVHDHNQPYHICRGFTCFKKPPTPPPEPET
Sequence of Serine/threonine-protein phosphatase PP1-alpha catalytic subunit (P62136 whole entry): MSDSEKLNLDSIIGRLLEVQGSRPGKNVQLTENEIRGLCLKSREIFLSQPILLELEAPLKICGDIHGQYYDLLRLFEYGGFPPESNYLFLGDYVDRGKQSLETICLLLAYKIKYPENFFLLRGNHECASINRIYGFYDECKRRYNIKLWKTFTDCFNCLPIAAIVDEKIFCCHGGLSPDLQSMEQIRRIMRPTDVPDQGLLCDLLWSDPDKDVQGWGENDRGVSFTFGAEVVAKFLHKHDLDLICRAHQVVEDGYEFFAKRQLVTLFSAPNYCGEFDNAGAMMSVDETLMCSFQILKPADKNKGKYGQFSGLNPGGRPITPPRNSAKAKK

One may read the EC50 as the concentration needed to bring the measured effect to its halfway point. What is called IC50 is the concentration at which inhibition is half-maximal. By AC50 is commonly meant the concentration at which the activity in the assay is half-maximal. Consider `CCCCCCCCCCOC(=O)C[n+]1c(COc2ccccc2C)n(C)c2ccccc21`, for which the EC50 in experiment [1] is 0.68 µM (active). The IC50 in experiment [2] was > 20 µM (inactive). Also, the AC50 in the experiment with INS1 is 2.16 µM (active).
For the molecule `Oc1nc(Nc2ccccc2)cc2ccccc12`, the IC50 on Cysteine protease ATG4B was 9.22 µM (active); on Caspase-3, 1.02 µM (active); in experiment [3], > 67 µM (not active); in experiment [4], 19.6 µM (active).
As for `COc1cc(OC)c(-c2c3cc(O)c(=O)cc-3oc3cc(O)c(O)cc23)cc1OC`, the IC50 was 12.5 µM (active) in [5]; > 89.2 µM (inactive) with HEK293; > 50 µM (not active) in experiment [6]; 5.62 µM (active) on Beta-lactamase; 1.73 µM (active) at Large T antigen. At Insulin-degrading enzyme, the EC50 was > 54.7 µM (inactive).
